Laboratory results: patent publication US20250134998A1, “T CELLS WITH CELL-SURFACE EXPRESSION OF ADENOSINE DEAMINASE AND USES THEREOF” (The Board of Trustees of the Leland Stanford Junior …, priority 2021, published 2025)

Experiments:
Format in all cases: cell-based, human
Nalm6-GD2 = assay: IL-2 and IFNγ ELISA, HA CAR T cells stimulated with Nalm6-GD2 with or without EHNA; conditions: 10 uM EHNA
Procedure: HA CAR T cells were stimulated with Nalm6-GD2 tumor line in the presence or absence of 10 uM of EHNA inhibitor at day 15 post-activation. IL-2 and IFNγ secretion was assessed using ELISA. One donor shown.
In some further experiments, CAR T cells overexpressing either ADA1-TM or ADA2-TM were activated with Nalm6-GD2 in the presence or absence of 10 uM of adenosine deaminase inhibitor—EHNA. It was observed that both CAR T cells overexpressing either HA-ADA1-TM or HA-ADA2-TM produced more IL-2 and IFNγ as compared to control group and this increase was abrogated in the presence of EHNA (see e.g., FIG. 12D).

HA and CD19 CAR T cells = assay: Cytokine secretion by idiotype-activated CAR T cells with NECA (ELISA); conditions: plate-bound idiotype, NECA treatment
Procedure: Co-culture Assays: CAR-T cells were cultured with 1 μM of CPI444 (CORVUS BIOPHARMA) for 2 to 24 hours before the duration of co-culture (unless stated otherwise) with tumor cells or plate-bound idiotype at the concentration 1 or 5 μg/ml. To stimulate a2aR, cells were treated with 0.01-0.1 mM of NECA (Torcis). For cytotoxicity assays, approximately 5×10^4 of tumor cells were co-cultured with CAR T cells at indicated ratio in 200 μL CM in 96-well flat bottom plates. Four images per well at 10× zoom were collected at each time point. Tumor cell growth was quantified by measuring total integrated GFP intensity per well using an IncuCyte ZOOM Live-Cell analysis system (Essen Bioscience) every 2-3 hr. GFP signal was normalized to the time 0 signal. Cell culture supernatants were collected at 24 hours, and interleukin-2 (IL-2) and interferon-g concentrations were determined by enzyme-linked immunosorbent assay (Biolegend). Triplicate wells were plated for each condition. […]
To test whether CAR T cells are susceptible to adenosine-mediated suppression, HA and CD19 CAR T cells were activated with plate-bounded idiotype in the presence or absence of the adenosine receptor agonist 5′-(N-ethylcarboxamido) adenosine (NECA), and analyzed the effector cytokine secretion capacity by ELISA (FIG. 6D; FIGS. 7A-7B). […]

NF-kB pathway = assay: NF-κB-GFP activation reporter in HA CAR-T cells
From the text: FIG. 7C illustrates NFkB-GFP activation level 4 hrs after stimulation of HA CAR T cells in the presence or absence of NECA and A2aR competitive inhibitor. Data are mean s.e.m. from triplicate wells.
To test whether CAR T cells are susceptible to adenosine-mediated suppression, HA and CD19 CAR T cells were activated with plate-bounded idiotype in the presence or absence of the adenosine receptor agonist 5′-(N-ethylcarboxamido) adenosine (NECA), and analyzed the effector cytokine secretion capacity by ELISA (FIG. 6D; FIGS. 7A-7B). […] Adenosine-dependent a2aR stimulation led to elevate intracellular 3′,5′-cyclic adenosine monophosphate (cAMP) which in turn inhibited the NF-kB pathway and cell proliferation (FIG. 6A). To evaluate whether adenosine suppression of CAR T cells worked through the same mechanisms, an NF-κB activation reporter was constructed by placing the Green Fluorescence Protein (GFP) gene downstream of NF-κB response elements. HA CAR-T cells were co-transduced with this NF-kB-GFP reporter. Upon activation with plate-bound idiotype, NECA diminished activation of the NF-kB-GFP reporter (FIG. 7C). This inhibitory effect on activation was prevented by addition of the selective A2aR competitive antagonist (iA2aR), confirming A2a receptor (A2aR) involvement in the suppressive effect of NECA on HA CAR-T cells.

CD19.BBz CAR T cells = assay: Suppression assay: IL-2 secretion by CD19 CAR T cells with HA CAR T cells present; conditions: CD19 CAR T cells pre-incubated with A2aR inhibitor, in the presence of adenosine-producing HA cells
Procedure: Suppression Assay: For assessing IL-2 secretion inhibition 5×10^4 CD19 CAR T cells 5×10^4 Nalm6 tumor cells together with 5×10^4 of HA CAR or Mock T cells were cultured in 300 μL CM in 96-well flat bottom plates for 24 h. Triplicate wells were plated for each condition. Culture supernatants were collected and analyzed for IL-2 by ELISA (BioLegend).
IL-2 secreted by CD19.BBz CAR T cells co-cultured with Nalm6 leukemia cells was measured in the presence or absence of bulk or sorted CD8+HA CAR T cells for 24 hours.
To test this hypothesis that adenosine production was responsible for the suppressive function of exhausted CAR T cells over neighboring cells, whether HA CAR-T cells were able to produce adenosine in an autocrine manner was investigated (FIG. 7D). Next, CD19 CAR T cells that were pre-incubated with A2aR inhibitor were activated in the presence or absence of (CD8) HA CAR T cells.

CCCCCC[C@@H]([C@@H](C)O)n1cnc2c(N)ncnc21 (racemic) [EHNA]
increase in IFNγ by CAR T cells overexpressing HA-ADA1-TM or HA-ADA2-TM (Nalm6-GD2): abrogated
increase in IL-2 by CAR T cells overexpressing HA-ADA1-TM or HA-ADA2-TM (Nalm6-GD2): abrogated

CCNC(=O)[C@H]1O[C@@H](n2cnc3c(N)ncnc32)[C@H](O)[C@@H]1O [NECA, 5′-(N-ethylcarboxamido) adenosine]
IFNγ production (HA and CD19 CAR T cells): reduced
IL-2 production (HA and CD19 CAR T cells): reduced
activation of the NF-kB-GFP reporter (NF-kB pathway; plate-bound idiotype): diminished

Cc1ccc(-c2nc(N)nc3c2nnn3Cc2cccc(CO[C@H]3CCOC3)n2)o1 [iA2aR]
IL-2 production by CD19 CAR T cells (CD19.BBz CAR T cells): restored IL-2 production
inhibitory effect of NECA on NF-kB-GFP reporter activation (NF-kB pathway; A2aR antagonist added): prevented
